Laboratory results reported in the supplement of paper PMC10883282.

Tests used:
Experiment in all cases: standardised AUC of viability dose-response curve (72 h) (fraction (0-1)); higher = less growth inhibition (more resistant)
SW684 = tested on: SW684
Method in brief: (§1)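 In 384-well plates, sarcoma cell lines were exposed for 72 h, in triplicate, to 2.5 µl of a 1:3 compound dilution series whose compound-plate concentrations ran from 10 mM to 0.0002 mM. Four-parameter log-logistic models were fitted per drug and cell line to ATPLite viability, scaled 1 (full) to 0 (none). From these fits, a modified drexplorer computeAUC gave the standardised area under the curve in log-dose space. Here 1 marks no response and 0 full response.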

KHOS-240S = tested on: KHOS-240S
Method in brief: as §1

VA-ES-BJ = tested on: VA-ES-BJ
Method in brief: as §1

SW982 = tested on: SW982
Method in brief: as §1

HT1080 = tested on: HT1080
Method in brief: as §1

MES-SA = tested on: MES-SA
Method in brief: as §1

SW1353 = tested on: SW1353
Method in brief: as §1

SYO-1 = tested on: SYO-1
Method in brief: as §1

SW872 = tested on: SW872
Method in brief: as §1

A204 = tested on: A204
Method in brief: as §1

RD = tested on: RD
Method in brief: as §1

RD-ES = tested on: RD-ES
Method in brief: as §1

G401 = tested on: G401
Method in brief: as §1

SK-ES-1 = tested on: SK-ES-1
Method in brief: as §1

HS729 = tested on: HS729
Method in brief: as §1

SK-LMS-1 = tested on: SK-LMS-1
Method in brief: as §1

KHOS-NP = tested on: KHOS-NP
Method in brief: as §1

| SMILES | standardised AUC (SW684) | standardised AUC (KHOS-240S) | standardised AUC (VA-ES-BJ) | standardised AUC (SW982) | standardised AUC (HT1080) | standardised AUC (MES-SA) | standardised AUC (SW1353) | standardised AUC (SYO-1) | standardised AUC (SW872) | standardised AUC (A204) | standardised AUC (RD) | standardised AUC (RD-ES) | standardised AUC (G401) | standardised AUC (SK-ES-1) | standardised AUC (HS729) | standardised AUC (SK-LMS-1) | standardised AUC (KHOS-NP) |
| --- | --- | --- | --- | --- | --- | --- | --- | --- | --- | --- | --- | --- | --- | --- | --- | --- | --- |
| CN(C)C/C=C/C(=O)Nc1cc2c(Nc3ccc(F)c(Cl)c3)ncnc2cc1O[C@H]1CCOC1 [AFATINIB] | 0.85 | 0.846 | 0.825 | 0.759 | 0.926 | 0.807 | 0.729 | 0.795 | 0.819 | 0.733 | 0.801 | 0.823 | 0.838 | 0.745 | 0.849 | 0.837 | 0.939 |
| COc1cc(Nc2ncc3c(n2)-c2ccc(Cl)cc2C(c2c(F)cccc2OC)=NC3)ccc1C(=O)O [ALISERTIB] | 0.902 | 0.835 | 0.808 | 0.734 | 0.873 | 0.678 | 0.933 | 0.732 | 0.895 | 0.876 | 0.801 | 0.656 | 0.811 | 0.558 | 0.889 | 0.865 | 0.95 |
| CCS(=O)(=O)N1CC(CC#N)(n2cc(-c3ncnc4[nH]ccc34)cn2)C1 [BARICITINIB] | 0.99 | 0.981 | 0.997 | 0.99 | 0.989 | 0.972 | 0.987 | 0.985 | 0.992 | 0.962 | 1 | 1 | 0.995 | 1 | 0.977 | 0.985 | 0.986 |
| COc1cc(N2CCC(N3CCN(C)CC3)CC2)ccc1Nc1ncc(Cl)c(Nc2ccccc2P(C)(C)=O)n1 [BRIGATINIB] | 0.904 | 0.766 | 0.763 | 0.649 | 0.907 | 0.908 | 0.77 | 0.681 | 0.778 | 0.833 | 0.694 | 0.7 | 0.816 | 0.713 | 0.728 | 0.883 | 0.889 |
| Cc1cc2c(F)c(Oc3ncnn4cc(OC[C@@H](C)OC(=O)[C@H](C)N)c(C)c34)ccc2[nH]1 [BRIVANIB ALANINATE] | 0.989 | 0.974 | 0.994 | 1 | 0.979 | 0.964 | 0.995 | 0.943 | 1 | 0.967 | 0.987 | 0.996 | 0.991 | 0.986 | 0.977 | 0.941 | 0.966 |
| O=C(c1ccc(F)c(F)c1Nc1ccc(I)cc1F)N1CC(O)([C@@H]2CCCCN2)C1 [COBIMETINIB] | 0.748 | 0.786 | 0.756 | 0.867 | 0.661 | 0.909 | 0.844 | 0.878 | 0.633 | 0.801 | 0.653 | 0.953 | 0.732 | 0.931 | 0.899 | 0.628 | 0.657 |
| Cc1c2oc3c(C)ccc(C(=O)N[C@@H]4C(=O)N[C@H](C(C)C)C(=O)N5CCC[C@H]5C(=O)N(C)CC(=O)N(C)[C@@H](C(C)C)C(=O)O[C@@H]4C)c3nc-2c(C(=O)N[C@@H]2C(=O)N[C@H](C(C)C)C(=O)N3CCC[C@H]3C(=O)N(C)CC(=O)N(C)[C@@H](C(C)C)C(=O)O[C@@H]2C)c(N)c1=O [DACTINOMYCIN] | 0.778 | 0.408 | 0.453 | 0.396 | 0.464 | 0.258 | 0.492 | 0.444 | 0.56 | 0.365 | 0.432 | 0.418 | 0.348 | 0.272 | 0.504 | 0.566 | 0.451 |
| C[C@@H]1CN(C(=O)c2ccc(NC(=O)c3cc(O[C@H](C)c4c(Cl)ccc(F)c4Cl)c(N)nn3)cc2)C[C@H](C)N1 [ENSARTINIB] | 0.936 | 0.895 | 0.853 | 0.808 | 0.929 | 0.832 | 0.933 | 0.816 | 0.891 | 0.937 | 0.852 | 0.805 | 0.875 | 0.79 | 0.878 | 0.845 | 0.975 |
| C=CC(=O)N1CCC(CNc2ncnc(N)c2-c2ccc(Oc3ccccc3)cc2)CC1 [EVOBRUTINIB] | 0.998 | 0.981 | 0.992 | 0.994 | 0.984 | 0.98 | 0.947 | 0.975 | 0.987 | 0.943 | 0.996 | 0.989 | 0.979 | 0.945 | 0.929 | 0.981 | 0.995 |
| CNC(=O)c1c(C)oc2cc(Oc3ncnc4cc(OC)c(OC)cc34)ccc12 [FRUQUINTINIB] | 0.979 | 0.937 | 0.964 | 0.986 | 0.968 | 0.97 | 0.932 | 0.79 | 0.925 | 0.787 | 0.993 | 0.984 | 0.934 | 0.968 | 0.856 | 0.96 | 0.975 |
| COc1cc2ncnc(Nc3ccc(F)c(Cl)c3)c2cc1OCCCN1CCOCC1 [GEFITINIB] | 0.988 | 0.962 | 0.989 | 0.927 | 0.983 | 0.948 | 0.955 | 0.945 | 0.959 | 0.948 | 0.973 | 0.961 | 0.963 | 0.904 | 0.963 | 0.942 | 0.994 |
| CCc1nc(C(N)=O)c(Nc2ccc(N3CCC(N4CCN(C)CC4)CC3)c(OC)c2)nc1NC1CCOCC1 [GILTERITINIB] | 0.791 | 0.814 | 0.793 | 0.674 | 0.899 | 0.785 | 0.857 | 0.665 | 0.735 | 0.817 | 0.748 | 0.655 | 0.811 | 0.663 | 0.659 | 0.823 | 0.898 |
| O=S(=O)(c1cccc2c(O)nccc12)N1CCCNCC1 [HYDROXYFASUDIL] | 0.95 | 0.975 | 0.968 | 0.992 | 0.999 | 0.967 | 0.965 | 0.958 | 0.961 | 0.98 | 1 | 1 | 0.99 | 0.976 | 0.917 | 0.979 | 0.981 |
| C#Cc1cccc(Nc2ncnc3cc4c(cc23)OCCOCCOCCO4)c1 [ICOTINIB] | 0.986 | 0.99 | 0.975 | 0.989 | 0.988 | 0.976 | 0.947 | 0.966 | 0.958 | 0.958 | 1 | 0.985 | 0.995 | 0.986 | 0.918 | 0.982 | 0.996 |
| CCN1CCN(c2ccc(Nc3cc(N(C)C(=O)Nc4c(Cl)c(OC)cc(OC)c4Cl)ncn3)cc2)CC1 [INFIGRATINIB] | 0.996 | 0.896 | 0.943 | 0.933 | 0.995 | 0.774 | 0.855 | 0.736 | 0.95 | 0.701 | 0.986 | 0.926 | 0.719 | 0.838 | 0.737 | 0.965 | 0.983 |
| CS(=O)(=O)CCNCc1ccc(-c2ccc3ncnc(Nc4ccc(OCc5cccc(F)c5)c(Cl)c4)c3c2)o1 [LAPATINIB] | 0.989 | 0.927 | 0.966 | 0.94 | 0.99 | 0.924 | 0.941 | 0.924 | 0.936 | 0.915 | 0.938 | 0.995 | 0.991 | 0.928 | 0.952 | 0.938 | 0.99 |
| O=C1CCc2c(Oc3ccc4c(c3)[C@@H]3[C@H](O4)[C@H]3c3nc4cc(C(F)(F)F)ccc4[nH]3)ccnc2N1 [LIFIRAFENIB] | 0.999 | 0.938 | 0.987 | 0.931 | 0.963 | 0.956 | 0.96 | 0.88 | 0.87 | 0.805 | 0.924 | 0.988 | 0.946 | 0.955 | 0.95 | 0.904 | 0.882 |
| CNC(=O)c1cccc2cc(Oc3ccnc4cc(OCC5(N)CC5)c(OC)cc34)ccc12 [LUCITANIB] | 0.973 | 0.901 | 0.994 | 0.975 | 1 | 0.908 | 0.893 | 0.74 | 0.985 | 0.585 | 0.985 | 0.964 | 0.853 | 0.95 | 0.85 | 0.94 | 0.994 |
| CCOc1cc2ncc(C#N)c(Nc3ccc(OCc4ccccn4)c(Cl)c3)c2cc1NC(=O)/C=C/CN(C)C [NERATINIB] | 0.901 | 0.873 | 0.83 | 0.717 | 0.877 | 0.745 | 0.753 | 0.818 | 0.817 | 0.755 | 0.775 | 0.822 | 0.851 | 0.693 | 0.872 | 0.847 | 0.889 |
| COC(=O)c1ccc2c(c1)NC(=O)/C2=C(\Nc1ccc(N(C)C(=O)CN2CCN(C)CC2)cc1)c1ccccc1 [NINTEDANIB] | 0.953 | 0.858 | 0.982 | 0.941 | 0.96 | 0.967 | 0.966 | 0.672 | 0.978 | 0.624 | 0.93 | 0.896 | 0.859 | 0.832 | 0.88 | 0.943 | 0.961 |
| Cc1[nH]c(/C=C2\C(=O)Nc3ccccc32)c(C)c1CCC(=O)O [ORANTINIB] | 0.966 | 0.993 | 0.967 | 0.966 | 0.971 | 0.958 | 0.964 | 0.976 | 0.975 | 0.963 | 0.994 | 0.985 | 0.977 | 0.977 | 0.934 | 0.976 | 0.99 |
